Common to all, as to test: mass response relative to vehicle control (EMD distance of treated vs reference mass distribution minus control baseline) (% of mean reference cell mass); higher = larger drug-induced change in single-cell mass distribution (stronger response)
For one assay, the system named is MOLM-13. Here is the method: (§1)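 Cancer cell lines were treated in vitro with drugs at the listed doses (about 24 h; 0.25% DMSO vehicle). Single-cell buoyant mass was measured on suspended microchannel resonator instruments with CNN image curation, 2500 cells per condition. Mass response is the Earth Mover's Distance to vehicle-treated reference cells as % of mean reference mass.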

The next assay deals with MM1S ATCC. Here is the method: as §1
The subject of the next assay is PC9. Here is the method:
as §1

± gives the uncertainty stated by the source.

`CO[C@@H]1[C@H](N(C)C(=O)c2ccccc2)C[C@H]2O[C@]1(C)n1c3ccccc3c3c4c(c5c6ccccc6n2c5c31)C(=O)NC4` [Midostaurin]: the mass response with MOLM-13 (0.02 µM) is 14.9 ± 0.91; in the assay on MOLM-13 (0.2 µM) it was 38.7 ± 1.5; in the assay with MOLM-13 (2 µM), 27.7 ± 0.98; in the assay with MOLM-13 (20 µM) it was 30.2 ± 2.4.
Take `Nc1cccc2c1CN(C1CCC(=O)NC1=O)C2=O` (centres undefined) [Lenalidomide]: the mass response in the assay on MM1S ATCC (0.1 µM) was found to be 1.82 ± 5.2; in the assay on MM1S ATCC (1 µM), 4.81 ± 3.5; in the assay on MM1S ATCC (10 µM), 4.13 ± 1.8; in the assay on MM1S ATCC (0.0001 M), 14.4 ± 1.9.
For `C[C@@H]1C[C@H]2[C@@H]3CCC4=CC(=O)C=C[C@]4(C)[C@@]3(F)[C@@H](O)C[C@]2(C)[C@@]1(O)C(=O)CO` [Dexamethasone], the mass response was determined as 13.7 ± 1.9 with MM1S ATCC (0.02 µM), 14.8 ± 2.1 in the assay on MM1S ATCC (0.2 µM), 14.5 ± 2 in the assay on MM1S ATCC (2 µM) and 13.5 ± 2 in the assay with MM1S ATCC (20 µM).
Regarding `Nc1ncn([C@@H]2O[C@H](CO)[C@@H](O)[C@H]2O)c(=O)n1` [5-Azacytidine], the mass response with MOLM-13 (0.1 µM) was 1.27 ± 0.26; in the assay with MOLM-13 (1 µM) it was 10.1 ± 1.9; with MOLM-13 (10 µM), 35.2 ± 2.8; with MOLM-13 (0.0001 M), 36.45 ± 0.22.
On to `C/C(=C\c1csc(C)n1)[C@@H]1C[C@@H]2O[C@]2(C)CCC[C@H](C)[C@H](O)[C@@H](C)C(=O)C(C)(C)[C@@H](O)CC(=O)N1` [Ixabepilone], for which the mass response in the assay on PC9 (0.01 µM) turned out to be 19.5 ± 1.5; in the assay on PC9 (0.1 µM), 37.6 ± 4.5; in the assay with PC9 (1 µM), 36.7 ± 4.5; in the assay on PC9 (10 µM), 36.8 ± 5.7.
As for `COc1cccc2c1C(=O)c1c(O)c3c(c(O)c1C2=O)C[C@@](O)(C(C)=O)C[C@@H]3O[C@H]1C[C@H](N)[C@H](O)[C@H](C)O1` [Daunorubicin], the mass response in the assay on MOLM-13 (0.01 µM) was 3.77 ± 1.2; in the assay on MOLM-13 (0.1 µM), 22.3 ± 2.7; in the assay on MOLM-13 (1 µM), 31.1 ± 1.9; in the assay on MOLM-13 (10 µM), 45.8 ± 2.6.
For the compound `CNC(=O)c1cc(Oc2ccc(NC(=O)Nc3ccc(Cl)c(C(F)(F)F)c3)c(F)c2)ccn1` [Regorafenib], the mass response with MM1S ATCC (0.04 µM) was 1.84 ± 1.4; in the assay with MM1S ATCC (0.4 µM), 0.733 ± 1.4; in the assay with MM1S ATCC (4 µM) it was 10.9 ± 0.83; in the assay with MM1S ATCC (20 µM) it was 44.9 ± 2.9.
Regarding `Nc1cccc2c1C(=O)N(C1CCC(=O)NC1=O)C2=O` (centres undefined) [Pomalidomide], the mass response in the assay on MM1S ATCC (0.02 µM) was found to be 8.45 ± 2.3; with MM1S ATCC (0.2 µM), 18.1 ± 5.3; with MM1S ATCC (2 µM), 17.1 ± 5.7; in the assay with MM1S ATCC (20 µM), 16.7 ± 3.2.
With `COc1cc([C@@H]2c3cc4c(cc3[C@@H](O[C@@H]3O[C@@H]5CO[C@@H](C)O[C@H]5[C@H](O)[C@H]3O)[C@H]3COC(=O)[C@H]23)OCO4)cc(OC)c1O` [Etoposide], the mass response is 0.492 ± 1.6 in the assay on PC9 (0.01 µM), 0.732 ± 2.1 in the assay on PC9 (0.1 µM), 12.3 ± 1 in the assay with PC9 (1 µM) and 36.2 ± 0.97 with PC9 (10 µM).
As to `CC(C)(C)c1cc(NC(=O)Nc2ccc(-c3cn4c(n3)sc3cc(OCCN5CCOCC5)ccc34)cc2)no1` [Quizartinib], the mass response was 1.17 ± 1.9 in the assay on MOLM-13 (0.0001 µM), 16.3 ± 0.82 with MOLM-13 (0.001 µM), 27 ± 0.32 with MOLM-13 (0.01 µM) and 25.8 ± 0.77 in the assay with MOLM-13 (0.1 µM).
Take `C#Cc1cccc(Nc2ncnc3cc(OCCOC)c(OCCOC)cc23)c1` [Erlotinib]: the mass response with PC9 (0.01 µM) is 0.55 ± 1.1; in the assay with PC9 (0.1 µM) it was 15.4 ± 1.5; in the assay with PC9 (1 µM) it was 17.2 ± 0.41; in the assay on PC9 (10 µM), 24.6 ± 1.6.
For `CN(C)C/C=C/C(=O)Nc1cc2c(Nc3ccc(F)c(Cl)c3)ncnc2cc1O[C@H]1CCOC1` [Afatinib], in that order: 13.3 ± 4, 15.8 ± 1.3, 19.1 ± 1.6 and 30.7 ± 4.
For `COc1cccc2c1C(=O)c1c(O)c3c(c(O)c1C2=O)C[C@@](O)(C(=O)CO)C[C@@H]3O[C@H]1C[C@H](N)[C@H](O)[C@H](C)O1` [Doxorubicin], the mass response was 33.3 ± 6.1 in the assay on PC9 (0.15 µM), 22.9 ± 4.7 in the assay with PC9 (0.625 µM), 6.7 ± 3 in the assay with PC9 (2.5 µM) and 40.9 ± 3.2 in the assay on PC9 (10 µM).
`COc1cc2ncnc(Nc3ccc(F)c(Cl)c3)c2cc1OCCCN1CCOCC1` [Gefitinib]: the mass response in the assay with PC9 (0.05 µM) stood at 7.94 ± 10; with PC9 (0.5 µM), 23.1 ± 11; with PC9 (5 µM), 35.1 ± 9.7; in the assay with PC9 (50 µM), 81.56 ± 0.43.
For the compound `CC(=O)[C@]1(O)Cc2c(O)c3c(c(O)c2[C@@H](O[C@H]2C[C@H](N)[C@H](O)[C@H](C)O2)C1)C(=O)c1ccccc1C3=O` [Idarubicin], the mass response is -0.127 ± 1.4 in the assay with MOLM-13 (0.001 µM), 19.1 ± 2.9 in the assay on MOLM-13 (0.01 µM), 33.1 ± 2 in the assay on MOLM-13 (0.1 µM) and 36.6 ± 2.1 in the assay with MOLM-13 (1 µM).
Consider `CCc1nc(C(N)=O)c(Nc2ccc(N3CCC(N4CCN(C)CC4)CC3)c(OC)c2)nc1NC1CCOCC1` [Gilteritinib], for which the mass response is -3.18 ± 4.6 in the assay on MOLM-13 (0.002 µM), 13.3 ± 3.4 in the assay on MOLM-13 (0.02 µM), 35 ± 2.9 in the assay with MOLM-13 (0.2 µM) and 33.9 ± 5.4 in the assay with MOLM-13 (2 µM).

These data come from the supplement of paper PMC9701192.
